# Tested on: A549 non-small cell lung carcinoma (NSCLC) xenografts
# Test: Antitumor efficacy in A549 NSCLC xenografts in nude mice
# Format: in vivo
# Settings: for % TGI: day 47
# Protocol: In the current study, compound (1) was evaluated for its antitumor activity against the A549 NSCLC human xenograft model in nude mice. A549 cells appear to have a functional Notch signaling pathway since receptors, ligands, and downstream effectors such as Hes-1 and Hey-1 are expressed (as assessed by PCR-based gene expression profiling). A549 cells have at least one identifiable defect in the Notch pathway; the negative regulator Numb is expressed only at low levels. In vitro, nM concentrations of compound (1) induce a less transformed phenotype in A549 cells and loss of growth in soft agar […], which is consistent with mechanistic inhibition of Notch activation. […] Female nude mice (10/group), obtained from Charles River Laboratories (Wilmington, Mass.) were used when they were approximately 13-14 weeks old and weighed approximately 23-25 grams. The health of all animals was determined daily by gross observation of experimental animals and by the analyses of blood samples of sentinel animals that were housed on the shared shelf racks. All animals were allowed to acclimate and recover from any shipping related stress for a minimum of 72 hours prior to experimental use. Autoclaved water and irradiated food [5058-ms Pico chow (mouse) Purina, Richmond, Ind.] were provided ad libitum, and the animals were maintained on a 12 hour light and dark cycle. Cages, bedding and water bottles were autoclaved before use and were changed weekly. A549 human NSCLC cells were purchased from ATCC (Manassas, Va.) and cultured in RPMI 1640 culture medium with 10% (v/v) FBS. Cells were grown and harvested by members of the Oncology In Vivo Section (OIVS). Each mouse received 7.5×10^6 cells in 0.2 ml PBS (Phosphate Buffered Saline) implanted subcutaneously in the right hind flank by members of OIVS on Aug. 17, 2006. […] Compound (1) was mixed vigorously prior to withdrawal and administration. Formulated compound and vehicle were prepared weekly and stored at 4° C., as set out below. […] Treatment began on Sep. 12, 2006 (day 26 post tumor cell implant). […] 19, 2006 (day 33 post tumor cell implant). […] 3, 2006 (day 47 post tumor cell implant). Efficacy data was graphically represented as the mean tumor volume+standard error of the mean (SEM). Tumor volumes of treated groups were presented as percentages of tumor volumes of the control groups (% T/C), using the formula: 100×((T−T0)/(C−C0)), where T represented mean tumor volume of a treated group on a specific day during the experiment, T0 represented mean tumor volume of the same treated group on the first day of treatment; C represented mean tumor volume of a control group on the specific day during the experiment, and C0 represented mean tumor volume of the same treated group on the first day of treatment. Tumor volume (in cubic millimeters) was calculated using the ellipsoid formula: (D×(d2))/2 where ‘D’ represents the large diameter of the tumor, and ‘d’ represents the small diameter. In some cases, tumor regression and/or percent change in tumor volume was calculated using the formula: ((T−T0)/T0)×100 where ‘T’ represents mean tumor volume of the treated group at a particular day, and ‘T0’ represents mean tumor volume of the same treated group at initiation of treatment. Statistical analysis was determined by the rank sum test and One Way Anova and a post-hoc Bonferroni t-test (SigmaStat, version 2.0, Jandel Scientific, San Francisco, Calif.). Differences between groups were considered to be significant when the probability value (p) was ≦0.05. […] Percent tumor growth inhibition was calculated on day 47, which was the final day of treatment for the 21-day treated groups, 7 days post-treatment for 14-day treated groups (14+/7−), or 14-days post treatment for the 7-day treated group (7+/14−).
smiles,measurement,setting,value
"CC(C)(C(=O)NCC(F)(F)C(F)(F)F)C(=O)N[C@@H]1C(=O)Nc2ccccc2-c2ccccc21 [Compound (1), 2,2-Dimethyl-N—((S)-6-oxo-6,7-dihydro-5H-dibenzo[b,d]azepin-7-yl)-N′-(2,2,3,3,3-pentafluoro-propyl)-malonamide]",% TGI,3 mg/kg po bid × 21 days,83%
same,% TGI,"3 mg/kg po bid, 14+/7− schedule",83%
same,% TGI,3 mg/kg po qd × 21 days,76%
same,% TGI,"3 mg/kg po qd, 14+/7− schedule",66%
same,% TGI,10 mg/kg po bid × 21 days,72%
same,% TGI,"10 mg/kg po bid, 14+/7− schedule",80%
same,% TGI,10 mg/kg po qd × 21 days,70%
same,% TGI,"10 mg/kg po qd, 14+/7− schedule",77%
same,% TGI,"30 mg/kg po bid, 14+/7− schedule",79%
same,% TGI,30 mg/kg po qd × 21 days,66%
same,% TGI,"30 mg/kg po qd, 14+/7− schedule",79%
same,inhibition of tumor growth sustained post treatment,"60 mg/kg bid, 7+/14− schedule (to day 67)",up to 34 days
same,% TGI,"60 mg/kg po bid, 7+/14− schedule",91%
same,% TGI,"60 mg/kg po qd, 14+/7− schedule",88%
same,% TGIs (range),"3, 10 or 30 mg/kg once or twice daily for 14 (14+/7−) or 21 days",66-83%
same,inhibition of tumor growth sustained post treatment,all 21-day treated groups (to day 63),up to 16 days
same,growth suppression lasting post treatment,"all qd or bid groups, 14+/7− schedule (to day 63)",up to 23 days
same,tumor growth inhibition (range),seven or fourteen days of BID treatment out of a 21 day cycle,79-91%

# From patent US8741889B2, “Method of treating non-small cell lung cancer and colon cancer with gamma-secretase inhibitor” (Hoffmann-La Roche Inc, priority 2008, dated 2014)
